Experiments:
[1] = Plasma protein binding assay (rapid equilibrium device); assay type: in vitro ADME; conditions: guinea pig plasma, equilibrium dialysis 4 h at 37 °C, read-out: fraction bound (converted)
Description: Plasma was freshly prepared by centrifugation of guinea pig blood for 10 min at 1900 g in K3-EDTA (Ethylenediaminetetraacetic acid) coated tubes. The plasma protein binding of compounds was assessed at 5 μM concentrations as described by Van Liemp et al. 2010 (Van Liemp S, Morrison D, Sysmans L, Nelis P & Mortishire-Smith R (2010). Development and Validation of a Higher-Throughput Equilibrium Dialysis Assay for Plasma Protein Binding. Journal of the Association for Laboratory Automation, 2010, in press) using a rapid equilibrium device (RED). Briefly, guinea pig plasma was mixed with 5 μM test compound and then applied to the RED. Equilibrium was achieved after 4 h incubation at 37° C. Compound concentrations in the buffer and plasma compartment of the device were measured by LC-MS/MS.

CYP2C9 = CYP2C9 (Homo sapiens, UniProt P11712); experiment: Cytochrome P450 inhibition, Protocol A, cDNA expressed proteins, fluorogenic substrate; assay type: in vitro ADME; conditions: % inhibition at 10 μM; substrate MFC; cDNA expressed protein
Outline: (§1)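 cDNA-expressed enzymes with fluorogenic substrates (three separate ones for CYP3A4) in sodium/potassium buffer pH 7.4 plus NADPH-generating system. Compounds at 1 nM to 10 μM final, prewarmed 5 min at 37° C, reaction started with NADP+, stopped, then fluorescence measured.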

CYP1A2 = target: T1, CYP1A2 (Homo sapiens, UniProt P05177); experiment: as above; assay type: in vitro ADME; conditions: % inhibition at 10 μM; substrate CEC; cDNA expressed protein
T1 sequence (P05177 1-516): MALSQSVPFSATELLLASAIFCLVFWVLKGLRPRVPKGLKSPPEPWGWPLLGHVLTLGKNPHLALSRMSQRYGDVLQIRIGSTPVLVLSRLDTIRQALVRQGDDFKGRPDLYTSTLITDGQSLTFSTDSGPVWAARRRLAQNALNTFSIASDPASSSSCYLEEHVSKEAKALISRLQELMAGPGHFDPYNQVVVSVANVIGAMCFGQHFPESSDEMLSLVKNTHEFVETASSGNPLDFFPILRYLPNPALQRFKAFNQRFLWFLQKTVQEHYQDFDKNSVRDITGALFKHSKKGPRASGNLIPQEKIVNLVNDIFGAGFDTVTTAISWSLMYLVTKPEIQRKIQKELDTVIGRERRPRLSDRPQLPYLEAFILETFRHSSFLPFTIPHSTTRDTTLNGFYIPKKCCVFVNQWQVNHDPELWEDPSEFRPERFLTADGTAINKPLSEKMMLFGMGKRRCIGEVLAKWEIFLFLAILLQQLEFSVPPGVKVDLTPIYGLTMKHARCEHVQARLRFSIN
Outline: as §1

[2] = test system: Rhizomucor miehei IHEM13391; experiment: Antifungal activity in vitro (resazurin susceptibility screen), Inf. K; assay type: cell-based; conditions: 37 °C, 48 hours, resa time 17 hours, read-out: Inf. K pIC50 (converted)
Description: The standard susceptibility screen was performed in 96-well plates (U-bottom, Greiner Bio-One). […] These serial dilutions (10 n1) were then spotted onto test-plates that could be stored in the dark at 4° C. for a maximum period of 2 weeks. […] The different fungal species/isolates (Table 3a) were cryopreserved and 1/1000 diluted in medium just prior to use. A standard inoculum of 200 μl containing 10^3 colony-forming unit (cfu) was then added to each well. A positive control (100% growth=fungal culture without antifungal) and a negative control (0% growth ═RPMI-MOPS medium) were included on each plate. […] [table]

Microsporum canis B68128 = experiment: Antifungal activity in vitro (resazurin susceptibility screen), Inf. B; assay type: cell-based; conditions: Microsporum canis, B68128, Microsporum canis B68128; 27 °C, 9 days, resa time 24 hours; read-out: Inf. B pIC50 (converted)
Outline: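 Each well was inoculated with 10^3 cfu of fungus onto dried, pre-spotted compound serial dilutions in RPMI-MOPS medium, with fungal growth read by resazurin. Growth was referenced to drug-free culture (100%) and medium-only (0%) controls on each plate.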

[3] = test system: Cryptococcus neoformans B66663; experiment: Antifungal activity in vitro (resazurin susceptibility screen), Inf. F; assay type: cell-based; conditions: Cryptococcus neoformans, B66663, Cryptococcus neoformans B66663; 37 °C, 24 hours, resa time 4 hours; read-out: Inf. F pIC50 (converted)
Outline: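 Compound serial dilutions were spotted onto test plates, kept in the dark at 4 °C for at most 2 weeks. Cryopreserved isolates were diluted 1/1000 in medium just before use and added at 10^3 cfu per well. Each plate carried drug-free culture as 100% growth and RPMI-MOPS medium alone as 0% growth.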

[4] = Liver metabolic stability assay, mLM; assay type: in vitro ADME; conditions: mouse liver microsomes, 1 mg protein/ml, 5 μM test compound, 15 min, 37 °C
Description: Liver preparations (microsomal fractions) were obtained from BD Gentest (San Jose, Calif., US). Metabolic stability was assessed using the following assay conditions. […] The mixture was pre-incubated at 37° C. for 5 min and the enzymatic reaction was started by addition of 5 μM test compound. After 0 (control) and 15 minutes (min), the reactions were terminated by addition of […] (500 μl). The precipitated material was removed by centrifugation at 1200 g for 10 min. The supernatant was analysed by LC-MS/MS on a ThermoFinnigan LCQ Deca XP ion-trap mass spectrometer equipped with an atmospheric pressure chemical ionisation source. Calculation of %-compound remaining was as described by Kantharaj et al. 2003 ((Kantharaj E., Tuytelaars A, Proost P E A, Ongel Z, van […] (2003). Simultaneous measurement of drug metabolic stability and identification of metabolites using ion-trap mass spectrometry.

CYP2C9, sequence (P11712 whole entry): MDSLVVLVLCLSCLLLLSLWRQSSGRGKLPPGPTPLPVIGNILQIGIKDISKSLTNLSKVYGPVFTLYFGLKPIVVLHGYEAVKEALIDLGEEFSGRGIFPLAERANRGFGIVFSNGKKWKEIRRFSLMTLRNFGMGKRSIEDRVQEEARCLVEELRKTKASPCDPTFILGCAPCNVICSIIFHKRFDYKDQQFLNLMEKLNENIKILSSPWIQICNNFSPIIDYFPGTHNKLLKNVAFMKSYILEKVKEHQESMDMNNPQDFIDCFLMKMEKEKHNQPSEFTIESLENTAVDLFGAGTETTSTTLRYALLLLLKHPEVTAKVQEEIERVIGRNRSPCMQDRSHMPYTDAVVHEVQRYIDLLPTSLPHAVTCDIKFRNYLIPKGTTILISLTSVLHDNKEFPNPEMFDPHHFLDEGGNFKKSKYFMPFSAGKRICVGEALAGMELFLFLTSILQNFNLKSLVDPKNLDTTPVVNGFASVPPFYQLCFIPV

fraction unbound at 4 h, 5 μM [1]	melting point [°C]	hCYP2C9_MFC_Pct_Inh (CYP2C9) [%]	hCYP1A2_CEC_Pct_Inh (CYP1A2) [%]	IC50 [2] [µM]	IC50 (Microsporum canis B68128) [µM]	IC50 [3] [µM]	%-compound metabolised Met_mLM [4] [%]	Compound
0.0152	171.4 to 171.8	60	38	7.94	0.631	2	–	CC(=O)c1ccc(C2=NCc3cccc(Cl)c3-n3cccc32)cc1 [Compound 15, 1-[4-(10-chloro-6H-pyrrolo[1,2-a][1,4]benzodiazepin-4-yl)phenyl]-ethanone]
–	–	84	55	> 63.1	0.316	> 63.1	97	CC(=O)c1cccc(C2=NCc3c(Cl)cccc3-n3cccc32)c1 [Compound 16, 1-[3-(7-chloro-6H-pyrrolo[1,2-a][1,4]benzodiazepin-4-yl)phenyl]-ethanone]
–	215.2 to 216	43	18	> 63.1	1.26	> 63.1	–	CC(=O)c1ccc(C2=NCc3c(F)cccc3-n3cccc32)cc1 [Compound 20, 1-[4-(7-fluoro-6H-pyrrolo[1,2-a][1,4]benzodiazepin-4-yl)phenyl]-ethanone]
–	250.2 to 254.2	85	20	> 63.1	0.1	10	37	CC(=O)c1ccc(C2=NCc3c(Cl)cc(Cl)cc3-n3cccc32)cc1 [Compound 22, 1-[4-(7,9-dichloro-6H-pyrrolo[1,2-a][1,4]benzodiazepin-4-yl)phenyl]-ethanone]
–	226.9 to 230	54	18	> 63.1	2	10	–	CC(=O)c1ccc(C2=NCc3c(F)cc(F)cc3-n3cccc32)cc1 [Compound 24, 1-[4-(7,9-difluoro-6H-pyrrolo[1,2-a][1,4]benzodiazepin-4-yl)phenyl]-ethanone]

Compound	fraction unbound at 4 h, 5 μM [1]	melting point [°C]	hCYP2C9_MFC_Pct_Inh (CYP2C9) [%]	hCYP1A2_CEC_Pct_Inh (CYP1A2) [%]	IC50 [2] [µM]	IC50 (Microsporum canis B68128) [µM]	IC50 [3] [µM]	%-compound metabolised Met_mLM [4] [%]
CC(=O)c1cc(C2=NCc3c(Cl)cccc3-n3cccc32)ccc1F [Compound 19, 1-[5-(7-chloro-6H-pyrrolo[1,2-a][1,4]benzodiazepin-4-yl)-2-fluorophenyl]-ethanone]	–	146.2 to 147.7	60	44	> 63.1	1.58	> 63.1	–

From patent publication US9040523B2, “Antifungal 5,6-dihydro-4H-pyrrolo[1,2-α][1,4]-benzodiazepines and 6H-pyrrolo[1,2-α][1,4]benzodiazepines substituted with benzene derivatives” (JANSSEN PHARMACEUTICA NV, priority 2010, dated 2015)
